In brackets after ≈: the same amount, converted by molar mass.

The test system of assay [1] is Pseudomonas aeruginosa. Description: Antibacterial activity against Pseudomonas aeruginosa PAO397 [PAO1 d(mexAB-oprM) d(mexCD-oprJ) d(mexEF-oprN) d(mexJKL) d(mexXY) d(opmH)] (CO-ADD:GN_211); MIC in CAMBH media using NBS plates, by OD(600). The following applies: ASSAY_TEST Inhibition of Bacterial Growth, detection method Absorption (OD600), MEDIA CAMHB, plate type 384well, CORNING #3640, time 18 hr. In kind it is functional.

The test system of assay [2] is Pseudomonas aeruginosa. As to the kind of experiment: microbe, parasite or virus in culture. The following applies: ATCC 27853, 18 h, ASSAY_TEST Inhibition of Bacterial Growth, detection method Absorption (OD600), MEDIA CAMHB, plate type 384well, NBS, CORNING #3640.
Description: Antibacterial activity against Pseudomonas aeruginosa ATCC 27853 (CO-ADD:GN_042); MIC in CAMBH media using NBS plates, by OD(600)
For a further assay, the system named is Acinetobacter baumannii. As to the kind of experiment: microbe, parasite or virus in culture. The following applies: ATCC 19606, 18 h, ASSAY_TEST Inhibition of Bacterial Growth, detection method Absorption (OD600), MEDIA CAMHB, plate type 384well, NBS, CORNING #3640.

Description for Acinetobacter baumannii: Antibacterial activity against Acinetobacter baumannii ATCC 19606 (CO-ADD:GN_034); MIC in CAMBH media using NBS plates, by OD600

Consider `Cc1ncc(C)c(N)n1`, for which the MIC in the assay on Pseudomonas aeruginosa [1] was above 300 µM; with Pseudomonas aeruginosa [2], 300 µM (≈ 36.9 µg/mL); in the assay on Acinetobacter baumannii, above 300 µM.

Consider `c1cc2c(cc1C1=NN=C(NC3CC3)SC1)OCCO2`, for which the MIC in the assay on Pseudomonas aeruginosa [1], in the assay on Pseudomonas aeruginosa [2] and against Acinetobacter baumannii was above 300 µM each time.

On to `O=C(c1ccc(Br)s1)N1CCN(c2ccccn2)CC1`, for which the MIC against Pseudomonas aeruginosa [1], against Pseudomonas aeruginosa [2] and in the assay on Acinetobacter baumannii was above 300 µM each time.

For the compound `CN(C)CCC(=O)c1ccc(F)cc1`, the MIC against Pseudomonas aeruginosa [1], against Pseudomonas aeruginosa [2] and against Acinetobacter baumannii was above 300 µM throughout.

As to `C[C@@]1(N)C[C@H]1c1ccccc1`, the MIC against Pseudomonas aeruginosa [1] was 200 µM (≈ 29.4 µg/mL); in the assay on Pseudomonas aeruginosa [2], above 300 µM; in the assay with Acinetobacter baumannii, above 300 µM.

Take `CC(C)CCC(=O)N[C@@H]1CN(C)C[C@H]1CN(C)C`: the MIC against Pseudomonas aeruginosa [1], in the assay on Pseudomonas aeruginosa [2] and in the assay on Acinetobacter baumannii was above 300 µM each time.

Take `Clc1cccnc1N1CCC(Nc2cccnc2)CC1`: the MIC with Pseudomonas aeruginosa [1], against Pseudomonas aeruginosa [2] and in the assay with Acinetobacter baumannii was above 300 µM in each case.

For `OCCCN(CCO)Cc1c(Cl)ccc2cccnc12`, the MIC against Pseudomonas aeruginosa [1], against Pseudomonas aeruginosa [2] and in the assay on Acinetobacter baumannii was above 300 µM each time.

With `c1cn2c(n1)COCC2`, the MIC in the assay on Pseudomonas aeruginosa [1], with Pseudomonas aeruginosa [2] and in the assay on Acinetobacter baumannii was above 300 µM throughout.

Regarding `Cc1cscc1C(=O)Nc1ncnn1C`, the MIC against Pseudomonas aeruginosa [1], in the assay with Pseudomonas aeruginosa [2] and against Acinetobacter baumannii was above 300 µM throughout.

`CN(C)C(=O)CNC(=O)NCc1cc(F)ccc1Br`: the MIC in the assay with Pseudomonas aeruginosa [1], in the assay with Pseudomonas aeruginosa [2] and in the assay with Acinetobacter baumannii was above 300 µM throughout.

As to `N#CC(c1ccc(Br)cc1)N1CCNCC1` (stereo unspecified), the MIC with Pseudomonas aeruginosa [1], against Pseudomonas aeruginosa [2] and with Acinetobacter baumannii was above 300 µM throughout.

Consider `Cc1cccc(S(=O)(=O)NC2CCNC2)c1Cl` (stereo unspecified), for which the MIC against Pseudomonas aeruginosa [1], against Pseudomonas aeruginosa [2] and against Acinetobacter baumannii was above 300 µM each time.

As to `COc1cc(F)cc(NCC(=O)NCc2ccco2)c1`, the MIC in the assay with Pseudomonas aeruginosa [1], in the assay on Pseudomonas aeruginosa [2] and in the assay on Acinetobacter baumannii was above 300 µM throughout.

As to `NCC1CCN(Cc2cccc(F)c2)CC1`, the MIC against Pseudomonas aeruginosa [1], in the assay on Pseudomonas aeruginosa [2] and in the assay with Acinetobacter baumannii was above 300 µM throughout.

Turning to `CNC(=O)Cn1cc(-c2cccc3cnccc23)cn1`, the MIC in the assay with Pseudomonas aeruginosa [1], with Pseudomonas aeruginosa [2] and in the assay on Acinetobacter baumannii was above 300 µM each time.

On to `CC(=O)c1ccc(NC(=O)CCc2cccs2)nc1`, for which the MIC against Pseudomonas aeruginosa [1], against Pseudomonas aeruginosa [2] and in the assay with Acinetobacter baumannii was above 300 µM each time.

`COc1ccc(CNCCCSc2nnnn2C)cc1`: the MIC against Pseudomonas aeruginosa [1], in the assay with Pseudomonas aeruginosa [2] and with Acinetobacter baumannii was above 300 µM throughout.

Take `NC1CSCc2c(F)cccc21` (stereo unspecified): the MIC against Pseudomonas aeruginosa [1], with Pseudomonas aeruginosa [2] and against Acinetobacter baumannii was above 300 µM throughout.

For `Ic1nnnn1-c1ccccc1`, the MIC was 25 µM (≈ 6.8 µg/mL) in the assay on Pseudomonas aeruginosa [1], 60 µM (≈ 16.3 µg/mL) against Pseudomonas aeruginosa [2] and above 300 µM in the assay on Acinetobacter baumannii.

In the case of `CN(C)C(=O)CCNc1ccnc2ccc(Cl)cc12`, the MIC in the assay with Pseudomonas aeruginosa [1], against Pseudomonas aeruginosa [2] and with Acinetobacter baumannii was above 300 µM throughout.

Turning to `c1ccc(Nc2nccs2)nc1`, the MIC against Pseudomonas aeruginosa [1], in the assay on Pseudomonas aeruginosa [2] and in the assay with Acinetobacter baumannii was above 300 µM in each case.

As for `CC(C)CNC(=O)CSc1n[nH]c(-c2ccccn2)n1`, the results for the MIC in the assay on Pseudomonas aeruginosa [1], in the assay on Pseudomonas aeruginosa [2] and with Acinetobacter baumannii were 60 µM (≈ 17.5 µg/mL), above 300 µM and above 300 µM, respectively.

For `Cc1cc(C)c(C#N)c(N2C[C@H](C3CC3)[C@@H](N)C2)n1`, the MIC in the assay with Pseudomonas aeruginosa [1], in the assay with Pseudomonas aeruginosa [2] and against Acinetobacter baumannii was above 300 µM throughout.

In the case of `CN(Cc1ccc(O)cc1)C(=O)c1cc(Cl)c[nH]1`, the MIC with Pseudomonas aeruginosa [1], in the assay on Pseudomonas aeruginosa [2] and in the assay with Acinetobacter baumannii was above 300 µM throughout.

Consider `OC[C@@H]1CCCN1Cc1ccc(F)c2cccnc12`, for which the MIC in the assay on Pseudomonas aeruginosa [1], against Pseudomonas aeruginosa [2] and in the assay on Acinetobacter baumannii was above 300 µM each time.

Turning to `O=C(Nc1cc[nH]n1)c1csc(I)c1`, the MIC against Pseudomonas aeruginosa [1], in the assay with Pseudomonas aeruginosa [2] and with Acinetobacter baumannii was above 300 µM in each case.

Regarding `CCS(=O)(=O)NCC(N)c1ccc(C(C)C)cc1` (stereo unspecified), the MIC against Pseudomonas aeruginosa [1], against Pseudomonas aeruginosa [2] and against Acinetobacter baumannii was above 300 µM throughout.

On to `NCC(=O)N1CCCC(CCc2ccc(F)c(F)c2)C1` (stereo unspecified), for which the MIC in the assay with Pseudomonas aeruginosa [1], against Pseudomonas aeruginosa [2] and with Acinetobacter baumannii was above 300 µM each time.

As for `CCCSc1ccc(NC(=O)NCCN)cc1`, the MIC against Pseudomonas aeruginosa [1], against Pseudomonas aeruginosa [2] and against Acinetobacter baumannii was above 300 µM in each case.

For the compound `COCC(O)CNc1c(C)c(C)nc2ccccc12` (stereo unspecified), the MIC with Pseudomonas aeruginosa [1], against Pseudomonas aeruginosa [2] and against Acinetobacter baumannii was above 300 µM in each case.

With `NCCS(=O)(=O)N1CCCc2ccccc21`, the MIC in the assay on Pseudomonas aeruginosa [1], against Pseudomonas aeruginosa [2] and against Acinetobacter baumannii was above 300 µM each time.

As for `Cn1ncnc1NC(=O)c1ccc(C#N)cc1`, the values for the MIC against Pseudomonas aeruginosa [1], against Pseudomonas aeruginosa [2] and against Acinetobacter baumannii were 200 µM (≈ 45.4 µg/mL), 200 µM (≈ 45.4 µg/mL) and above 300 µM, respectively.

On to `CCC(C)(C)NC(=O)c1nnn(-c2ccccc2)c1C`, for which the MIC against Pseudomonas aeruginosa [1], in the assay with Pseudomonas aeruginosa [2] and with Acinetobacter baumannii was above 300 µM throughout.

`O=C(NC[C@H]1CCCN1)c1ccc2cccc(Cl)c2n1`: the values for the MIC in the assay on Pseudomonas aeruginosa [1], against Pseudomonas aeruginosa [2] and against Acinetobacter baumannii were 300 µM (≈ 86.9 µg/mL), above 300 µM and above 300 µM, respectively.

With `N[C@@H]1CCCc2c(F)cc(F)cc21`, the MIC with Pseudomonas aeruginosa [1], against Pseudomonas aeruginosa [2] and in the assay with Acinetobacter baumannii was above 300 µM each time.

Regarding `CS(=O)(=O)c1ccc(CN)o1`, the MIC against Pseudomonas aeruginosa [1], in the assay on Pseudomonas aeruginosa [2] and in the assay on Acinetobacter baumannii was above 300 µM in each case.

Turning to `NCC1Cc2ccccc21` (stereo unspecified), the MIC against Pseudomonas aeruginosa [1], in the assay on Pseudomonas aeruginosa [2] and against Acinetobacter baumannii was above 300 µM in each case.

`Cc1cccc(OCCc2noc(C3CNC3)n2)c1`: the MIC against Pseudomonas aeruginosa [1] was 200 µM (≈ 51.9 µg/mL); in the assay on Pseudomonas aeruginosa [2], above 300 µM; in the assay on Acinetobacter baumannii, above 300 µM.

`CCCNc1nc(C)c(C(C)=O)s1`: the MIC is 200 µM (≈ 39.7 µg/mL) against Pseudomonas aeruginosa [1], above 300 µM with Pseudomonas aeruginosa [2] and above 300 µM in the assay on Acinetobacter baumannii.

Regarding `Nc1nc(-c2ccc3c(c2)CCCC(=O)N3)cs1`, the MIC against Pseudomonas aeruginosa [1], against Pseudomonas aeruginosa [2] and against Acinetobacter baumannii was above 300 µM each time.

In the case of `CCOc1ccc(Cl)cc1CCNS(=O)(=O)N(C)C`, the MIC against Pseudomonas aeruginosa [1], against Pseudomonas aeruginosa [2] and against Acinetobacter baumannii was above 300 µM each time.

Consider `CCCOc1ccc(NS(=O)(=O)N(C)C)cc1Cl`, for which the MIC with Pseudomonas aeruginosa [1], in the assay on Pseudomonas aeruginosa [2] and in the assay with Acinetobacter baumannii was above 300 µM throughout.

On to `Cc1nnc(SCC(=O)NCCCc2csc(N)n2)s1`, for which the MIC in the assay on Pseudomonas aeruginosa [1], against Pseudomonas aeruginosa [2] and in the assay on Acinetobacter baumannii was above 300 µM each time.

In the case of `Fc1cccnc1OC1CCNCC1`, the MIC in the assay on Pseudomonas aeruginosa [1], against Pseudomonas aeruginosa [2] and in the assay with Acinetobacter baumannii was above 300 µM throughout.

For the compound `N#Cc1nnc(-c2ccccc2)o1`, the MIC in the assay on Pseudomonas aeruginosa [1], against Pseudomonas aeruginosa [2] and with Acinetobacter baumannii was above 300 µM in each case.

For `CSC(C)(C)COC(=O)c1ccc(-n2ccnc2)nc1`, the MIC against Pseudomonas aeruginosa [1], with Pseudomonas aeruginosa [2] and with Acinetobacter baumannii was above 300 µM each time.

`CCC(C#N)NC(=O)c1cnc(OC(C)C)c(Cl)c1` (stereo unspecified): the MIC in the assay with Pseudomonas aeruginosa [1], with Pseudomonas aeruginosa [2] and against Acinetobacter baumannii was above 300 µM throughout.

With `NCCc1cccc2cc[nH]c12`, the MIC in the assay on Pseudomonas aeruginosa [1], in the assay with Pseudomonas aeruginosa [2] and in the assay on Acinetobacter baumannii was above 300 µM throughout.

For `COc1cccc(CNCc2ccccn2)c1`, the MIC in the assay on Pseudomonas aeruginosa [1], against Pseudomonas aeruginosa [2] and in the assay with Acinetobacter baumannii was above 300 µM throughout.

Turning to `CC(C)NC(=O)NCC1(N2CCOCC2)CCSC1` (stereo unspecified), the MIC against Pseudomonas aeruginosa [1], with Pseudomonas aeruginosa [2] and with Acinetobacter baumannii was above 300 µM throughout.

On to `Cc1ocnc1C(=O)Nc1ccc2c(c1)NCCC2`, for which the MIC against Pseudomonas aeruginosa [1], in the assay with Pseudomonas aeruginosa [2] and in the assay on Acinetobacter baumannii was above 300 µM each time.

With `Cc1cc(C(=O)NC2CCC(=O)NC2)cc(Cl)c1Br` (stereo unspecified), the MIC in the assay with Pseudomonas aeruginosa [1], in the assay with Pseudomonas aeruginosa [2] and in the assay on Acinetobacter baumannii was above 300 µM each time.

In the case of `CCCn1cnnc1CNC`, the MIC in the assay on Pseudomonas aeruginosa [1], in the assay on Pseudomonas aeruginosa [2] and against Acinetobacter baumannii was above 300 µM each time.

`OCCNCCNCc1ccc(-c2ccccc2F)o1`: the MIC with Pseudomonas aeruginosa [1], in the assay on Pseudomonas aeruginosa [2] and with Acinetobacter baumannii was above 300 µM each time.

Take `CN(C)C(=O)Nc1cc(F)cc(F)c1`: the MIC against Pseudomonas aeruginosa [1], in the assay on Pseudomonas aeruginosa [2] and with Acinetobacter baumannii was above 300 µM each time.

`CNCC(=O)NC(C)c1nc(-c2ccc(Br)cc2)no1` (stereo unspecified): the MIC against Pseudomonas aeruginosa [1], against Pseudomonas aeruginosa [2] and against Acinetobacter baumannii was above 300 µM throughout.

In the case of `CCOC(=O)C(CN)CC(C)C` (stereo unspecified), the MIC in the assay with Pseudomonas aeruginosa [1], in the assay with Pseudomonas aeruginosa [2] and against Acinetobacter baumannii was above 300 µM throughout.

For `Cc1ccc(C(N)c2ccccn2)cc1` (stereo unspecified), the MIC against Pseudomonas aeruginosa [1], with Pseudomonas aeruginosa [2] and against Acinetobacter baumannii was above 300 µM throughout.

Take `NCc1nc(-c2ccc(Cl)cc2)c[nH]1`: the MIC with Pseudomonas aeruginosa [1], with Pseudomonas aeruginosa [2] and against Acinetobacter baumannii was above 300 µM in each case.

For the compound `Cc1ccc(C)c2c(=O)cc(CN3CCC(N)C3)[nH]c12` (stereo unspecified), the MIC in the assay with Pseudomonas aeruginosa [1], in the assay on Pseudomonas aeruginosa [2] and in the assay with Acinetobacter baumannii was above 300 µM throughout.

`Cc1cc(N2CCN(CCO)CC2)nc2ccccc12`: the MIC in the assay on Pseudomonas aeruginosa [1], against Pseudomonas aeruginosa [2] and with Acinetobacter baumannii was above 300 µM each time.

The record behind these values is ChEMBL document CHEMBL4513160, “CO-ADD screening of MMV (CH) - Small Polar Library”.
